Columns and labels:
human Nav1.7 channels = target: T1, human Nav1.7 channels (Homo sapiens, UniProt Q15858); test: hNav1.7 channel assay, whole cell patch clamp, two-pulse protocol; format: cell-based; settings: TP2 (inactivated phase inhibition), HEK293 cells stably expressing human Nav1.7, read-out: Inhibition activity: percent inhibition on the inactivated state of hNav1.7
T1 construct: host or cells: HEK293
Description: Whole cell patch clamp technique was used to investigate the inhibitory effects of the compound of Examples on human Nav1.7 channels, stably expressed in HEK293 cells. Human Nav1.7 recombinant cell line (CYL3011-precisION) was purchased from Eurofins.
Two-pulse protocol was used every 10 seconds to assess the state-dependent inhibition by Examples. From the holding potential of −90 mV, pre-pulse (200 ms at −120 mV) was followed by test pulse1 ([…]), then test pulse2 (TP2: 20 ms at 0 mV) was evoked after inter-pulse (20 ms at −100 mV).
Peak current amplitudes were measured for test pulses TP1 (resting phase inhibition) and TP2 (inactivated phase inhibition). The following solutions were used for screening assay: External (mM): 145 NaCl, 1 MgCl2, 1.8 CaCl2, 10 Hepes, 5 Glucose, pH 7.4, 300 mOsm; Internal (mM): 120 CsF, 10 NaCl, 10 EGTA, 10 HEPES, pH 7.2, 290 mOsm.
The inhibition on the inactivated state of hNav1.7 was calculated as: % inhibition (inactivation state)=(1−(ITP2, TA/ITP2, Control)×100%, where ITP2 (the inward peak Na+ currents), Control and ITP2, TA were elicited by the TP2 in control (vehicle only) and in the presence of a test article (TA) indicating Examples, respectively.

[1] = system: Rat Spinal Nerve Ligation Model; test: Rat Spinal Nerve Ligation (SNL, Chung) model, mechanical allodynia by von Frey filaments; format: in vivo; settings: 30 mg/kg, p.o., PWT two hours after the treatment
Experimental: Rat Spinal Nerve Ligation Model
Analgesic efficacy was examined through the Spinal Nerve Ligation (SNL) model, also known as the Chung model (Kim and Chung, 1992). SNL model is one of the most frequently used animal models for the assessment of neuropathic pain behavior.
Briefly, the lumbar 5 spinal nerve is ligated with silk suture distal to the dorsal root ganglion. After two weeks of recovery, mechanical allodynia in the affected paw of animals was evaluated using von Frey filaments. Using the Dixons Up-Down method (Chaplan et al, 1994), a pre-drug baseline was taken with allodynia defined as a paw withdrawal threshold (PWT)<4 g. Test compounds (at 30 mg/kg) or vehicle were then orally administered, and PWT was determined two hours after the treatment. Statistical mean values of PWT for vehicle control and drug treatment groups were calculated, and the percent of maximum possible effect (% MPE) value was determined according to the following formula; % MPE=[(post-drug PWT−pre-drug PWT)/(cutoff PWT−pre-drug PWT)]×100.

T1 sequence (Q15858 whole entry): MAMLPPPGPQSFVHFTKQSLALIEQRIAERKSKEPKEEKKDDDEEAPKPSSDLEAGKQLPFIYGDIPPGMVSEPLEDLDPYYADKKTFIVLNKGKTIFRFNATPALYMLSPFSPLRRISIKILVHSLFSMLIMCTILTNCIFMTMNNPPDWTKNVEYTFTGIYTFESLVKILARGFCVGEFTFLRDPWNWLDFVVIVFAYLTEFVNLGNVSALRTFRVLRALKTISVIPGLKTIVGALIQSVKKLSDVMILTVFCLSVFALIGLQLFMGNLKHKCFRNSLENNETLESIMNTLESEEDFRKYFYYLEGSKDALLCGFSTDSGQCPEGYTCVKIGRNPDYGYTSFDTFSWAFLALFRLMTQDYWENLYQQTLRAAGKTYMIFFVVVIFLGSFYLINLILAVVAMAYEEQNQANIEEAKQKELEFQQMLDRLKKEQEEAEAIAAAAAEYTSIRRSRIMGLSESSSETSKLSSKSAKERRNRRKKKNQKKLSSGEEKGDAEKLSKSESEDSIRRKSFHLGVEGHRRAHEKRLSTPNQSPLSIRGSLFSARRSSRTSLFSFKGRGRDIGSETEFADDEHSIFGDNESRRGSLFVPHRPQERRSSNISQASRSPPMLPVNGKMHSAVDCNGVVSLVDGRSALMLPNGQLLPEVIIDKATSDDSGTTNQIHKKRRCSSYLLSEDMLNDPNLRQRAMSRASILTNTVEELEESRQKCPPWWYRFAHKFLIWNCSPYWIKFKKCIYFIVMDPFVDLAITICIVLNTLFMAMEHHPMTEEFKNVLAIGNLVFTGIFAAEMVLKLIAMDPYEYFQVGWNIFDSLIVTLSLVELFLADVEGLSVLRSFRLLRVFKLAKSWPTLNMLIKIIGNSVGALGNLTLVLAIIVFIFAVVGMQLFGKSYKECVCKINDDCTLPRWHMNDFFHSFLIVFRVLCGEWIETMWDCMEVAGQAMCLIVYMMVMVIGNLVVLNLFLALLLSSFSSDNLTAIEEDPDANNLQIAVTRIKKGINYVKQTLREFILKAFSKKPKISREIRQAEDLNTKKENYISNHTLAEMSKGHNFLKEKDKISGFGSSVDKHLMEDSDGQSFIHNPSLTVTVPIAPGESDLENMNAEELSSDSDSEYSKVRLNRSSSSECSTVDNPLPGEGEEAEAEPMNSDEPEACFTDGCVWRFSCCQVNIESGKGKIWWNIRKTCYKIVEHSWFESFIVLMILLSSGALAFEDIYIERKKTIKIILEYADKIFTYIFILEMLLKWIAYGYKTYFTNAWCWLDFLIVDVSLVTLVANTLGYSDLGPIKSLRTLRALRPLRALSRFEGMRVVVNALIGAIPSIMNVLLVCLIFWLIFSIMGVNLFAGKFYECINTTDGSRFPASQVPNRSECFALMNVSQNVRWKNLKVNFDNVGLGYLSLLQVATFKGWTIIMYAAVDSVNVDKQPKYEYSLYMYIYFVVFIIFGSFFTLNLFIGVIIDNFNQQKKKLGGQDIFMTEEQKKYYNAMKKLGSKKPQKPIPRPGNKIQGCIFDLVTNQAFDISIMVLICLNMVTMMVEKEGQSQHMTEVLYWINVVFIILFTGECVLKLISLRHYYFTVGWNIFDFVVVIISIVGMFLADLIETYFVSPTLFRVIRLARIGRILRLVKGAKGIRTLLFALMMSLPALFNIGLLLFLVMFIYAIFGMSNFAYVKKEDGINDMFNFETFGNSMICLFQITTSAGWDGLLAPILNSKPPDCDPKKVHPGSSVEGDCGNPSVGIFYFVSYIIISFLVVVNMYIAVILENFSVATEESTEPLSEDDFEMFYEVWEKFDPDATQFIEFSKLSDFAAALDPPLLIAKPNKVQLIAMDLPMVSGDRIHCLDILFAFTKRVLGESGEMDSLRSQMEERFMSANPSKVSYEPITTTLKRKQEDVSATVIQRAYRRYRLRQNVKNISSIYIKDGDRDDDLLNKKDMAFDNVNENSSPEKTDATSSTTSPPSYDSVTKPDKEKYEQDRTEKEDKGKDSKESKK

| inhibition at 10 µM (human Nav1.7 channels) | Structure (SMILES) | in vivo efficacy: % MPE [1] |
| --- | --- | --- |
| 70 to 100% | O=C(NCc1cccc[n+]1[O-])c1cccc(-c2ccc(Cl)cc2)c1 [Example 2, 3-(4-chlorophenyl)-N-[(1-oxidopyridin-1-ium-2-yl)methyl]benzamide] | +++ (+++: 70-100%) |
| 70 to 100% | O=C(NCc1cccc[n+]1[O-])c1cccc(-c2ccc(OC(F)(F)F)cc2)c1 [Example 3, N-[(1-oxidopyridin-1-ium-2-yl)methyl]-3-[4-(trifluoromethoxy)phenyl]benzamide] | ++ (++: 40-70%,) |
| 40 to 70% | Cc1ccc(-c2cccc(C(=O)NCc3cccc[n+]3[O-])c2)cc1 [Example 14, N-[(1-oxidopyridin-1-ium-2-yl)methyl]-3-(p-tolyl)benzamide] | ++ (++: 40-70%,) |
| 40 to 70% | O=C(NCc1cccc[n+]1[O-])c1cccc(-c2ccc(F)c(F)c2)c1 [Example 19, 3-(3,4-difluorophenyl)-N-[(1-oxidopyridin-1-ium-2-yl)methyl]benzamide] | ++ (++: 40-70%,) |
| 40 to 70% | Cc1cc(-c2cccc(C(=O)NCc3cccc[n+]3[O-])c2)ccc1F [Example 22, 3-(4-fluoro-3-methyl-phenyl)-N-[(1-oxidopyridin-1-ium-2-yl)methyl]benzamide] | + (+: 10-40%,) |
| 70 to 100% | O=C(NCc1cccc[n+]1[O-])c1cccc(-c2ccc(F)c(C(F)(F)F)c2)c1 [Example 39, 3-[4-fluoro-3-(trifluoromethyl)phenyl]-N-[(1-oxidopyridin-1-ium-2-yl)methyl]benzamide] |  |
| 70 to 100% | COc1ccccc1-c1cccc(C(=O)NCc2cccc[n+]2[O-])c1 [Example 40, 3-(2-methoxyphenyl)-N-[(1-oxidopyridin-1-ium-2-yl)methyl]benzamide] |  |
| 10 to 40% | O=C(NCc1cccc[n+]1[O-])c1cccc(-c2cc(F)cc(C(F)(F)F)c2)c1 [Example 41, 3-[3-fluoro-5-(trifluoromethyl)phenyl]-N-[(1-oxidopyridin-1-ium-2-yl)methyl]benzamide] |  |
| 40 to 70% | O=C(NCc1cccc[n+]1[O-])c1cccc(-c2ccc(C(F)(F)F)c(F)c2)c1 [Example 42, 3-[3-fluoro-4-(trifluoromethyl)phenyl]-N-[(1-oxidopyridin-1-ium-2-yl)methyl]benzamide] |  |
| 70 to 100% | Cc1cc(-c2cccc(C(=O)NCc3cccc[n+]3[O-])c2)ccc1C(F)(F)F [Example 43, 3-[3-methyl-4-(trifluoromethyl)phenyl]-N-[(1-oxidopyridin-1-ium-2-yl)methyl]benzamide] |  |
| 70 to 100% | CC(C)(O)c1ccc(-c2cccc(C(=O)NCc3cccc[n+]3[O-])c2)cc1 [Example 44, 3-[4-(1-hydroxy-1-methyl-ethyl)phenyl]-N-[(1-oxidopyridin-1-ium-2-yl)methyl]benzamide] |  |
| 10 to 40% | COc1cc(-c2cccc(C(=O)NCc3cccc[n+]3[O-])c2)cc(C(F)(F)F)c1 [Example 45, 3-[3-methoxy-5-(trifluoromethyl)phenyl]-N-[(1-oxidopyridin-1-ium-2-yl)methyl]benzamide] |  |
| 10 to 40% | COc1cc(F)c(F)cc1-c1cccc(C(=O)NCc2cccc[n+]2[O-])c1 [Example 47, 3-(4,5-difluoro-2-methoxy-phenyl)-N-[(1-oxidopyridin-1-ium-2-yl)methyl]benzamide] |  |
| 40 to 70% | COc1cc(-c2cccc(C(=O)NCc3cccc[n+]3[O-])c2)ccc1Cl [Example 48, 3-(4-chloro-3-methoxy-phenyl)-N-[(1-oxidopyridin-1-ium-2-yl)methyl]benzamide] |  |
| 70 to 100% | COc1cc(-c2cccc(C(=O)NCc3cccc[n+]3[O-])c2)ccc1C(F)(F)F [Example 49, 3-[3-methoxy-4-(trifluoromethyl)phenyl]-N-[(1-oxidopyridin-1-ium-2-yl)methyl]benzamide] |  |
| 40 to 70% | COc1ccc(-c2cccc(C(=O)NCc3cccc[n+]3[O-])c2)c(C(F)(F)F)c1 [Example 50, 3-[4-methoxy-2-(trifluoromethyl)phenyl]-N-[(1-oxidopyridin-1-ium-2-yl)methyl]benzamide] |  |
| 70 to 100% | O=C(NCc1cccc[n+]1[O-])c1cc(-c2ccc(Cl)cc2)ccc1F [Example 51, 5-(4-chlorophenyl)-2-fluoro-N-[(1-oxidopyridin-1-ium-2-yl)methyl]benzamide] | +++ (+++: 70-100%) |
| 70 to 100% | O=C(NCc1cccc[n+]1[O-])c1cc(-c2cccc(Cl)c2)ccc1F [Example 52, 5-(3-chlorophenyl)-2-fluoro-N-[(1-oxidopyridin-1-ium-2-yl)methyl]benzamide] |  |
| 70 to 100% | COc1cc(Cl)ccc1-c1ccc(F)c(C(=O)NCc2cccc[n+]2[O-])c1 [Example 53, 5-(4-chloro-2-methoxy-phenyl)-2-fluoro-N-[(1-oxidopyridin-1-ium-2-yl)methyl]benzamide] |  |
| 70 to 100% | O=C(NCc1cccc[n+]1[O-])c1cc(-c2ccc(F)c(F)c2)ccc1F [Example 54, 5-(3,4-difluorophenyl)-2-fluoro-N-[(1-oxidopyridin-1-ium-2-yl)methyl]benzamide] |  |
| 40 to 70% | O=C(NCc1cccc[n+]1[O-])c1cc(-c2ccc(Cl)cc2C(F)(F)F)ccc1F [Example 55, 5-[4-chloro-2-(trifluoromethyl)phenyl]-2-fluoro-N-[(1-oxidopyridin-1-ium-2-yl)methyl]benzamide] |  |
| 70 to 100% | COc1cc(OC(F)(F)F)ccc1-c1ccc(F)c(C(=O)NCc2cccc[n+]2[O-])c1 [Example 56, 2-fluoro-5-[2-methoxy-4-(trifluoromethoxy)phenyl]-N-[(1-oxidopyridin-1-ium-2-yl)methyl]benzamide] |  |
| 70 to 100% | O=C(NCc1cccc[n+]1[O-])c1cc(-c2ccc(C(F)(F)F)cc2)ccc1F [Example 57, 2-fluoro-N-[(1-oxidopyridin-1-ium-2-yl)methyl]-5-[4-(trifluoromethyl)phenyl]benzamide] |  |
| 70 to 100% | O=C(NCc1cccc[n+]1[O-])c1cc(-c2ccc(OC(F)(F)F)cc2)ccc1F [Example 58, 2-fluoro-N-[(1-oxidopyridin-1-ium-2-yl)methyl]-5-[4-(trifluoromethoxy)phenyl]benzamide] |  |
| 70 to 100% | COc1cc(-c2ccc(F)c(C(=O)NCc3cccc[n+]3[O-])c2)ccc1C(F)(F)F [Example 59, 2-fluoro-5-[3-methoxy-4-(trifluoromethyl)phenyl]-N-[(1-oxidopyridin-1-ium-2-yl)methyl]benzamide] |  |
| 70 to 100% | O=C(NCc1cccc[n+]1[O-])c1cc(-c2ccc(C(F)(F)F)c(F)c2)ccc1F [Example 60, 2-fluoro-5-[3-fluoro-4-(trifluoromethyl)phenyl]-N-[(1-oxidopyridin-1-ium-2-yl)methyl]benzamide] |  |
| 70 to 100% | O=C(NCc1ccc(F)c[n+]1[O-])c1cccc(-c2ccc(Cl)cc2)c1 [Example 61, 3-(4-chlorophenyl)-N-[(5-fluoro-1-oxido-pyridin-1-ium-2-yl)methyl]benzamide] |  |
| 70 to 100% | O=C(NCc1cccc[n+]1[O-])c1cc(-c2ccc(Cl)cc2)ccc1Cl [Example 62, 2-chloro-5-(4-chlorophenyl)-N-[(1-oxidopyridin-1-ium-2-yl)methyl]benzamide] |  |

Source: patent US20250333383A1, “N-OXIDE COMPOUNDS AND USE THEREOF” (SK BIOPHARMACEUTICALS CO., LTD., priority 2022, published 2025)
